Where two headings read alike, the source gives them in different places.
Tests used:
[1] = system: human mononucleator cells (T-lymphocytes); assay: Proliferation of T-lymphocytes in cell culture in vitro (3H-thymidine); type: cell-based
Method: The influence of the test compound on the proliferation of T-lymphocytes was studied on a model in vitro. To this end human mononucleator cells were preliminarily incubated during three hours in the presence of different concentrations of each test substance. Each test substance was studied over a wide range of its concentrations, that is from […]. As a negative control there was added a physiological 0.9 percent solution of NaCl. The results of the influence of novel compoubds on the intensity of proliferation of human lymphocytes in the cell culture in vitro are represented in Table 3.

macrophages = assay: Phagocytic activity of macrophages (clearance from blood); type: in vivo, mice; settings: 500 μg per mouse per os
Excerpt: The influence of the preparations in question on the phagocytic activity of macrophages was studid from clearence of the carcass in blood taken from the retroorbital sinus of mice that received the preparations per os. The results were estimated on the phagocytic index α (see Table 4).

[2] = system: tuberculosis mycobacteria H37Rv (USSR H37Rv); type: in vivo, tuberculosis mycobacteria; mice of the CBA line; settings: USSR H37Rv
[3] = system: Kyp-4 strain of leprosy mycobacteria; assay: Antileprous activity in mice infected by Shepard's procedure; type: in vivo, leprosy mycobacteria; male mice of the CBA line; settings: after six months; isophonum dose 2.5 mg/kg
Excerpt: Antileprous activity of isophonum as compared with that of diuciphonum was studied on male mice of the CBA line infected with the laboratory Kyp-4 strain of leprosy mycobacteria taken in an amount of 5000 and introduced intraplantedly by Shepard's procedure. The experiment lasted six months from the 7th of February to the […] 1996. Observed were 5 groups of mice with 15 mice in each group. All the animals were kept under the same conditions of the vivarium on a standard diat.
The first group (controls): during six months of the experiment the mice received 0.5 ml of a starch suspension through a probe five times a week. After six months the animals were killed through a cervical dislocation of backbone, the organs were subjected to a bacterioscopic investigation, no pathologic deviations characteristic of any of the groups were found. The bacteriscopic investigation of the infected site was carried out by grinding the mouse foot in 2 ml of 0.1 percent solution of albumin, making a smear from 0.01 ml of the suspenstion and painting it by Ziel-Nielson's procedure and counting the number of leprosy micobacteria in 60 fields of vision to determine the number of micobacteria per mouse in each group.

[4] = system: antibody-forming cells (AFC) in the spleen; assay: Humoral immunity, localized-in-gel hemolysis, AFC accumulation in spleen of immunized mice; type: in vivo, hybrid mice F1 (CBA/C57BL6)
Method: The influence on humoral immunity was studied using the method of localized-in-gel hemolysis. […] On the 5th day the number of antibody-forming cells (AFC) in the spleen of the mice was calculated and the immune response stimulation index was determined as the ratio of AFC number in the test group to the AFC number in the control group. The respective data are represented in Table 2.

[5] = in vivo; cited from earlier work
[6] = system: antibody-forming cells (AFC) in the spleens; assay: Antibody-forming cells in the spleen, immunodeficiency caused by irradiation (Jeme-Nordin's procedure); type: in vivo, mice F1 (CBA×C57BL/6); settings: irradiated mice 4 Gy
Method: Determination of immunotropic activity of isophonum was carried out. Immunotropic activity of isophonum was determined on a model of immunodeficiency caused by irradiation. To create an immunodeficient state the mice F1 (CBA×C57BL/6) were irradiated with gamma-rays on a radioterapeutic apparatus in a dose of 4 Gy (Gy is the irradiation unit gray) at an irradiation dose power of 0.55 Gr/min. The number of antibody-forming cells (AFC) in the spleens was calculated by Jeme-Nordin's procedure. Isophonum and diuciphonum were introduced per os over a wide range of doses. The investigation results are represented in Table 1.

Tubazide-resistent H37Rv = type: in vivo, tuberculosis mycobacteria; mice of the CBA line; settings: Tubazide-resistent H37Rv
[7] = system: agent of leprosy (mycobacteria of leprosy); settings: leprosy patients
[8] = due to impurities contained therein; cited from earlier work
[9] = after three months, 0.6 g daily

Cc1[nH]c(=O)[nH]c(=O)c1S(=O)(=O)Nc1ccc(S(=O)(=O)c2ccc(NS(=O)(=O)c3c(C)[nH]c(=O)[nH]c3=O)cc2)cc1 [Diuciphonum, reference compound]
Intensity of involvement of 3H-thymidine in DNA of cultivated cells, PHA-activated ([1]; 0.01 μg/ml): 22811 impulse per minute
Intensity of involvement of 3H-thymidine in DNA of cultivated cells, Spontaneous ([1]; 0.01 μg/ml): 860 impulse per minute
Intensity of involvement of 3H-thymidine in DNA of cultivated cells, PHA-activated ([1]; 0.03 μg/ml): 24214 impulse per minute
Intensity of involvement of 3H-thymidine in DNA of cultivated cells, Spontaneous ([1]; 0.03 μg/ml): 850 impulse per minute
Intensity of involvement of 3H-thymidine in DNA of cultivated cells, PHA-activated ([1]; 0.1 μg/ml): 28946 impulse per minute
Intensity of involvement of 3H-thymidine in DNA of cultivated cells, Spontaneous ([1]; 0.1 μg/ml): 804 impulse per minute
Intensity of involvement of 3H-thymidine in DNA of cultivated cells, PHA-activated ([1]; 1 μg/ml): 26400 impulse per minute
Intensity of involvement of 3H-thymidine in DNA of cultivated cells, Spontaneous ([1]; 1 μg/ml): 799 impulse per minute
Intensity of involvement of 3H-thymidine in DNA of cultivated cells, PHA-activated ([1]; 5 μg/ml): 20150 impulse per minute
Intensity of involvement of 3H-thymidine in DNA of cultivated cells, Spontaneous ([1]; 5 μg/ml): 800 impulse per minute
Phagocytic index (macrophages): 5.18 ± 0.04
Phagocytic index, percent of controls (macrophages; controls 100%): (123%)
Damage index ([2]; dose not given): 2.31 ± 0.24
Life duration ([2]; dose not given): 25.1 ± 2.8
Weight of the lung ([2]; dose not given): 580.4 ± 50.7
Number of mycobacteria in the foot × 10^6 [3]: 0.048 ± 0.007 × 10^6
Percentage of infected animals [3]: 60%
AFC-number in the spleen ([4]; 500 μg per mouse per os in starch suspension, 5th day after immunization): 2250 ± 125
Immune response stimulation index ([4]; 500 μg per mouse per os, ratio of AFC test group to control group): 4.5
toxicity [5]: 2600 mg/kg
AFC-number in the spleen ([6]; 10 μg per mouse per os): 768 ± 123
Immune response stimulation index ([6]; 10 μg per mouse per os): 2.5 ± 0.2
AFC-number in the spleen ([6]; 100 μg per mouse per os): 870 ± 119
Immune response stimulation index ([6]; 100 μg per mouse per os): 2.9 ± 0.12
AFC-number in the spleen ([6]; 1000 μg per mouse per os): 647 ± 64
Immune response stimulation index ([6]; 1000 μg per mouse per os): 2.1 ± 0.2
Damage index (Tubazide-resistent H37Rv; dose not given): 2.27 ± 0.19
Life duration (Tubazide-resistent H37Rv; dose not given): 24.9 ± 2.4
Weight of the lung (Tubazide-resistent H37Rv; dose not given): 602.7 ± 70.2
B-lymphocytes ([7]; after one month, 0.6 g daily): 8.4 ± 0.6
T-helpers ([7]; after one month, 0.6 g daily): 32.4 ± 2.0
T-lymphocytes ([7]; after one month, 0.6 g daily): 50.5 ± 2.1
T-suppressors ([7]; after one month, 0.6 g daily): 20.1 ± 0.6
Th/Ts (immunoregulatory index) ([7]; after one month, 0.6 g daily): 1.6 ± 0.1
B-lymphocytes [7, 9]: 9.0 ± 0.3
T-helpers [7, 9]: 36.9 ± 2.3
T-lymphocytes [7, 9]: 55.4 ± 2.4
T-suppressors [7, 9]: 20.0 ± 0.5
Th/Ts (immunoregulatory index) [7, 9]: 1.8 ± 0.4
B-lymphocytes ([7]; before treatment): 6.3 ± 0.3
T-helpers ([7]; before treatment): 16.8 ± 0.2
T-lymphocytes ([7]; before treatment): 30.4 ± 0.4
T-suppressors ([7]; before treatment): 17.0 ± 0.4
Th/Ts (immunoregulatory index) ([7]; before treatment): 1.0

NNC(=O)c1ccncc1 [Tubazide]
Damage index ([2]; 100 μg per mouse): 2.16 ± 0.17
Weight of the lung ([2]; 100 μg per mouse): 586.4 ± 47.2
Damage index ([2]; 200 μg per mouse): 2.11 ± 0.18
Life duration ([2]; 200 μg per mouse): 32.2 ± 4.4
Weight of the lung ([2]; 200 μg per mouse): 550.6 ± 46.4
toxicity [5]: 150 mg/kg
Damage index (Tubazide-resistent H37Rv; 100 μg per mouse): 2.44 ± 0.24
Life duration (Tubazide-resistent H37Rv; 100 μg per mouse): 23.7 ± 2.4
Weight of the lung (Tubazide-resistent H37Rv; 100 μg per mouse): 628.7 ± 48.4
Damage index (Tubazide-resistent H37Rv; 200 μg per mouse): 2.01 ± 0.18
Life duration (Tubazide-resistent H37Rv; 200 μg per mouse): 30.2 ± 2.8
Weight of the lung (Tubazide-resistent H37Rv; 200 μg per mouse): 580.4 ± 46.4

Cc1[nH]c(=O)[nH]c(=O)c1S(=O)(=O)NNC(=O)c1ccncc1 [N-(6-methyl-2,4-dioxo-1,2,3,4-tetrahydro-5-pyrimidinsulfon)-N′-isonicotinoylhydrazide]
behaviour on prolonged storage [8]: does not withstand prolonged storage conditions
